Laboratory results taken from the NIST ThermoML archive (doi:10.1016/j.jct.2011.12.013).

How the values were obtained:
[1] = Liquid, Custom Made Vibrating Tube Densimeter
[2] = xn = mol fraction of the nth substance listed; details: Liquid, Custom Made Vibrating Tube Densimeter, x1 = 1

C=C1CC[C@H]2C[C@@H]1C2(C)C [(1S,5S)-6,6-dimethyl-2-methylenebicyclo[3.1.1]heptane]
mass density [kg/m3], [1]
Details	283.15 K	298.15 K	313.15 K	328.15 K	343.15 K	358.15 K
20000 kPa	891.3	880.2	869.3	858.2	847.7	837
25000 kPa	894.2	883.3	872.6	861.7	851.4	840.9
30000 kPa	897	886.3	875.7	865.2	855	844.8
35000 kPa	899.9	889.3	878.8	868.7	858.6	848.7
40000 kPa	902.6	892.2	882	872.2	862.1	852.6

C=C(C)[C@H]1CC=C(C)CC1 [(R)-1-methyl-4-(1-methylethenyl)cyclohexene]
mass density [kg/m3], [1]
Details	283.15 K	298.15 K	313.15 K	328.15 K	343.15 K	358.15 K
20000 kPa	862	851.5	841	830.5	820.1	810.2
25000 kPa	864.9	854.5	844.2	833.8	823.7	813.9
30000 kPa	867.7	857.6	847.2	837.2	827.3	817.6
35000 kPa	870.4	860.9	850.3	840.4	831.1	821.3
40000 kPa	873.3	863.4	853.3	843.8	834.6	824.8

C=C(C)[C@H]1CC=C(C)CC1 [(R)-1-methyl-4-(1-methylethenyl)cyclohexene] + C=C1CC[C@H]2C[C@@H]1C2(C)C
mass density [kg/m3], [2]
Details	283.15 K	298.15 K	313.15 K	328.15 K	343.15 K	358.15 K
20000 kPa	862	851.5	841	830.5	820.1	810.2
25000 kPa	864.9	854.5	844.2	833.8	823.7	813.9
30000 kPa	867.7	857.6	847.2	837.2	827.3	817.6
35000 kPa	870.4	860.9	850.3	840.4	831.1	821.3
40000 kPa	873.3	863.4	853.3	843.8	834.6	824.8
